Data taken from patent US6015809A (priority 1999, dated 2000).
≈ marks a conversion by molar mass, not a printed value. Read-outs that look alike come from different tables or passages of the source.

Tests used:
Assay in all cases: Antifungal activity, MIC microdilution
Type in all cases: cell-based
[1] = tested on: Aspergillus fumigatus; conditions: strain ATCC 26933, RPMI 1640, 35° C., 24-48 hours
Experimental: (§1) Antifungal activity for the compounds of this invention was established by evaluating a representative compound of this invention (Compound I) against several strains of fungi. Briefly the following procedure was used to evaluate such activity. A 96 U-bottom microtiter plate was filled (50 μl/well) with RPMI 1640. The compounds to be evaluated were placed in appropriate wells, and serial diluted in successive wells to provide 11 dilutions. The concentrations ranged from 64 through 0.06 μg/ml. An adjusted inoculum of fungi (50 μl) was added to each well and the plates were incubated at 35° C. for 24-48 hours.

[2] = tested on: Candida glabrata; conditions: strain ATCC 90030, RPMI 1640, 35° C., 24-48 hours
Experimental: as §1

[3] = tested on: Candida krussii; conditions: strain 94-2, RPMI 1640, 35° C., 24-48 hours
Experimental: as §1

[4] = tested on: Candida parapsilosis; conditions: RPMI 1640, 35° C., 24-48 hours
Experimental: as §1

[5] = tested on: Candida tropicalis; conditions: RPMI 1640, 35° C., 24-48 hours
Experimental: as §1

[6] = tested on: Cryptococcus neoformans; conditions: strain ATCC 90112, RPMI 1640, 35° C., 24-48 hours
Experimental: as §1

[7] = tested on: Filobasidiella neoformans; conditions: strain ATCC 7472, RPMI 1640, 35° C., 24-48 hours
Experimental: as §1

[8] = tested on: Aspergillus flavus
Experimental: as §1, with “Briefly” for “Antifungal activity for the compounds of this invention was established by evaluating a representative compound of this invention (Compound I) against several strains of fungi. Briefly”

[9] = tested on: Aspergillus niger; conditions: strain S-430, RPMI 1640, 35° C., 24-48 hours
Experimental: as §1, with “Briefly” for “Antifungal activity for the compounds of this invention was established by evaluating a representative compound of this invention (Compound I) against several strains of fungi. Briefly”

[10] = tested on: Candida albicans; conditions: RPMI 1640, 35° C., 24-48 hours
Experimental: as §1, with “Briefly” for “Antifungal activity for the compounds of this invention was established by evaluating a representative compound of this invention (Compound I) against several strains of fungi. Briefly”

[11] = tested on: Candida lusitaniae; conditions: Clavispora lusitaniae; strain 94-3; RPMI 1640, 35° C., 24-48 hours; read-out: MIC
Experimental: as §1, with “Briefly” for “Antifungal activity for the compounds of this invention was established by evaluating a representative compound of this invention (Compound I) against several strains of fungi. Briefly”

[12] = tested on: Candida pseudotropicalis; conditions: strain ATCC 28838, RPMI 1640, 35° C., 24-48 hours
Experimental: as §1, with “Briefly” for “Antifungal activity for the compounds of this invention was established by evaluating a representative compound of this invention (Compound I) against several strains of fungi. Briefly”

[13] = tested on: Candida rugosa; conditions: strain 94-10, RPMI 1640, 35° C., 24-48 hours
Experimental: as §1, with “Briefly” for “Antifungal activity for the compounds of this invention was established by evaluating a representative compound of this invention (Compound I) against several strains of fungi. Briefly”

[14] = tested on: Candida zeylanoided; conditions: strain 94-15, RPMI 1640, 35° C., 24-48 hours
Experimental: as §1, with “Briefly” for “Antifungal activity for the compounds of this invention was established by evaluating a representative compound of this invention (Compound I) against several strains of fungi. Briefly”

[15] = tested on: Saccharomyces cerevisiae
Experimental: as §1, with “Briefly” for “Antifungal activity for the compounds of this invention was established by evaluating a representative compound of this invention (Compound I) against several strains of fungi. Briefly”

[16] = Aspergillus fumigatus, ATCC26933, read-out: MIC
[17] = Nakaseomyces glabratus, ATCC90030, read-out: MIC
[18] = Lodderomyces parapsilosis, ATCC90018, strain ATCC 90018, read-out: MIC
[19] = Lodderomyces parapsilosis, strain 94-8, read-out: MIC
[20] = Lodderomyces parapsilosis, strain 94-9, read-out: MIC
[21] = Candida tropicalis, strain 94-14, read-out: MIC
[22] = Cryptococcus neoformans, ATCC90112, read-out: MIC
[23] = Cryptococcus neoformans, ATCC7472, read-out: MIC
[24] = Aspergillus flavus, ATCC12963, strain ATCC 12963, RPMI 1640, 35° C., 24-48 hours, read-out: MIC
[25] = Aspergillus niger, read-out: MIC
[26] = Kluyveromyces marxianus, ATCC28838, read-out: MIC
[27] = Candida albicans, ATCC90028, strain ATCC 90028
[28] = Saccharomyces cerevisiae, ATCC2601, strain ATCC 2601, RPMI 1640, 35° C., 24-48 hours, read-out: MIC

Compound | MIC [1, 16] [µg/mL] | MIC [2, 17] [µg/mL] | MIC ([3]; Candida, read-out: MIC) [µg/mL] | MIC [4, 18] [µg/mL] | MIC [4, 19] [µg/mL] | MIC [4, 20] [µg/mL] | MIC [5, 21] [µg/mL] | MIC ([5]; strain 94-13) [µg/mL] | MIC [6, 22] [µg/mL] | MIC [7, 23] [µg/mL] | MIC [8, 24] [µg/mL] | MIC [9, 25] [µg/mL] | MIC [11] [µg/mL] | MIC [12, 26] [µg/mL] | MIC ([13]; Diutina rugosa, read-out: MIC) [µg/mL] | MIC ([14]; Candida, read-out: MIC) [µg/mL] | MIC [10, 27] [µg/mL] | MIC ([10]; Candida albicans, strain 94-1) [µg/mL] | MIC ([10]; Candida albicans, strain 1063) [µg/mL] | MIC ([10]; Candida albicans, strain 1117) [µg/mL] | further results
CC1C=CC=CC=CC=CC=CC=CC=CC(OC2OC(C)C(O)C(N)C2O)CC2OC(O)(CC(O)CC(O)C(O)CCC(O)CC(O)CC(=O)OC(C)C(C)C1O)CC(O)C2C(=O)O (stereo not drawn) [Amphtericin B] | 0.25 (≈ 0.271 µM) | 0.25 (≈ 0.271 µM) | 0.5 (≈ 0.541 µM) | ≤ 0.12 | 0.25 (≈ 0.271 µM) | 0.5 (≈ 0.541 µM) | 0.25 (≈ 0.271 µM) | 0.25 (≈ 0.271 µM) | ≤ 0.12 | 0.12 (≈ 0.13 µM) | 2 (≈ 2.16 µM) | 0.25 (≈ 0.271 µM) | ≤ 0.12 | 0.25 (≈ 0.271 µM) | 0.25 (≈ 0.271 µM) | 0.25 (≈ 0.271 µM) | – | – | – | – | MIC ([10]; Candida albicans, ATCC90028, strain ATCC 90028, read-out: MIC): 0.25 µg/mL (≈ 0.271 µM); MIC ([10]; Candida albicans, strain 94-1, read-out: MIC): ≤ 0.12 µg/mL; MIC ([10]; Candida albicans, strain 1063, read-out: MIC): 0.25 µg/mL (≈ 0.271 µM); MIC ([10]; Candida albicans, strain 1117, read-out: MIC): 0.25 µg/mL (≈ 0.271 µM); MIC ([10]; Candida albicans, strain C-83, read-out: MIC): 0.25 µg/mL (≈ 0.271 µM); MIC ([15]; Saccharomyces cerevisiae, ATCC2601): ≤ 0.12 µg/mL
OC(Cn1cncn1)(Cn1cncn1)c1ccc(F)cc1F [Fluconazole] | > 16 | 4 (≈ 13.1 µM) | ≥ 16 | 0.5 (≈ 1.63 µM) | 0.5 (≈ 1.63 µM) | 0.5 (≈ 1.63 µM) | ≥ 16 | ≥ 16 | 8 (≈ 26.1 µM) | 16 (≈ 52.2 µM) | > 16 | > 16 | 1 (≈ 3.27 µM) | ≤ 0.12 | 2 (≈ 6.53 µM) | ≥ 16 | ≥ 16 | ≥ 16 | 4 (≈ 13.1 µM) | 8 (≈ 26.1 µM) | MIC ([10]; Candida albicans, strain C-83): ≥ 16 µg/mL; MIC [15, 28]: 8 µg/mL (≈ 26.1 µM)
Clc1ccc(COC(Cn2ccnc2)c2ccc(Cl)cc2Cl)c(Cl)c1 (stereo not drawn) [Miconazole] | 1 (≈ 2.4 µM) | ≤ 0.12 | 2 (≈ 4.81 µM) | ≤ 0.12 | 0.25 (≈ 0.601 µM) | 0.5 (≈ 1.2 µM) | 4 (≈ 9.61 µM) | 4 (≈ 9.61 µM) | ≤ 0.12 | 0.25 (≈ 0.601 µM) | – | 4 (≈ 9.61 µM) | ≤ 0.12 | ≤ 0.12 | ≤ 0.12 | 0.25 (≈ 0.601 µM) | 0.5 (≈ 1.2 µM) | 8 (≈ 19.2 µM) | 1 (≈ 2.4 µM) | 1 (≈ 2.4 µM) | MIC ([8]; Aspergillus flavus, ATCC12963): 0.5 µg/mL (≈ 1.2 µM); MIC ([10]; Candida albicans, strain C-83): 8 µg/mL (≈ 19.2 µM); MIC [15, 28]: ≤ 0.12 µg/mL
C[C@@H]1[C@H](O)[C@@H](C)/C=C/C=C/CC/C=C/C=C/C=C/C=C/C(O[C@H]2O[C@H](C)[C@@H](O)[C@H](N)[C@@H]2O)CC2O[C@](O)(CC(O)C(O)CCC(O)CC(O)CC(O)CC(=O)O[C@H]1C)CC(O)C2C(=O)O (stereo partly drawn) [Nystatin] | – | – | – | – | – | – | – | 1 (≈ 1.08 µM) | – | – | – | – | – | – | – | – | – | – | – | – | MIC [1]: 1 µg/mL (≈ 1.08 µM); MIC [2]: 1 µg/mL (≈ 1.08 µM); MIC [3]: 2 µg/mL (≈ 2.16 µM); MIC ([4]; strain 94-8): 1 µg/mL (≈ 1.08 µM); MIC ([4]; strain 94-9): 1 µg/mL (≈ 1.08 µM); MIC ([4]; strain ATCC 90018): 1 µg/mL (≈ 1.08 µM); MIC ([5]; strain 94-14): 2 µg/mL (≈ 2.16 µM); MIC [6]: 0.5 µg/mL (≈ 0.54 µM); MIC [7]: 0.5 µg/mL (≈ 0.54 µM); MIC ([8]; strain ATCC 12963, RPMI 1640, 35° C., 24-48 hours): ≥ 16 µg/mL; MIC [9]: 4 µg/mL (≈ 4.32 µM); MIC ([10]; strain 94-1): 2.0 µg/mL (≈ 2.16 µM); MIC ([10]; strain 1063): 2 µg/mL (≈ 2.16 µM); MIC ([10]; strain 1117): 1 µg/mL (≈ 1.08 µM); MIC ([10]; strain ATCC 90028): 1 µg/mL (≈ 1.08 µM); MIC ([10]; strain C-83): 2 µg/mL (≈ 2.16 µM); MIC [12]: 1 µg/mL (≈ 1.08 µM); MIC [13]: 2 µg/mL (≈ 2.16 µM); MIC [14]: 1 µg/mL (≈ 1.08 µM); MIC ([15]; strain ATCC 2601, RPMI 1640, 35° C., 24-48 hours): 2 µg/mL (≈ 2.16 µM)
